# Source: US20230203029A1 (priority 2020, published 2023)
# Like-named read-outs stand apart in the source and are kept apart here.
# Assays:
# [1] = target: T1, recombinant human MERTK expressed in live cells (HEK 293, MERTK-Nanoluc fusion vector) (Homo sapiens, UniProt Q12866); assay: Assay 2 MERTK cellular target engagement (NanoBRET TE) assay; assay type: cell-based; details: HEK 293 cells, tracer K9, 2 h at 37° C.; read-out: Assay 2 Cell TE MER IC50
# T1 construct: host or cells: HEK 293
# T1 sequence (Q12866 21-999): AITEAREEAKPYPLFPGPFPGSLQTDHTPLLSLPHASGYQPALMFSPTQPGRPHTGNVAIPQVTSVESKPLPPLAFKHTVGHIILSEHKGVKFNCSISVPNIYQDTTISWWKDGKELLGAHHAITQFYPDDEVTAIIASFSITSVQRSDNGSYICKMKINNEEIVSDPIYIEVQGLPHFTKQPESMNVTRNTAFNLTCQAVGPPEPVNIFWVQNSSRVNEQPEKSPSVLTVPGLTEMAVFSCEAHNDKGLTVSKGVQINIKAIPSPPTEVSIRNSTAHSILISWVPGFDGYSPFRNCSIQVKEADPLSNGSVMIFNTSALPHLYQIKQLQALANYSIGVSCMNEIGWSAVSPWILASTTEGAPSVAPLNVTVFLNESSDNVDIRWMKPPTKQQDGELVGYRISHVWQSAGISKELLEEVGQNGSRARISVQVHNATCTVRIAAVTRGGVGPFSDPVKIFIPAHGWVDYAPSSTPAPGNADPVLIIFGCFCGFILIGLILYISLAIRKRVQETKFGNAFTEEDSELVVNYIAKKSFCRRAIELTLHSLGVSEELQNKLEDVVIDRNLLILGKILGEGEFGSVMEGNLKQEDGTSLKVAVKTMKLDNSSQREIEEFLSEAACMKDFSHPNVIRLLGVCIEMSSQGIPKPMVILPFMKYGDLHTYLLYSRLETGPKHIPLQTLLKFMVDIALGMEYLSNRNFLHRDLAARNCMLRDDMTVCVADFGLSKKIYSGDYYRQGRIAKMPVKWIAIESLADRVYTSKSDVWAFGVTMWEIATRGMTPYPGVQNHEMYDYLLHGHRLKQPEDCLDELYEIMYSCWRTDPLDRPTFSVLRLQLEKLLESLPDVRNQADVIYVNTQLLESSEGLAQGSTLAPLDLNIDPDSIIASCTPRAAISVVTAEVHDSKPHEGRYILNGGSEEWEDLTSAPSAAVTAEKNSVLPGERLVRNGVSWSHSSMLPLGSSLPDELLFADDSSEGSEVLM
# [2] = target: T2, human AXL cytoplasmic domain (Homo sapiens, UniProt P30530); assay: Assay 1b AXL HTRF KinEASE-TK assay; assay type: biochemical
# T2 construct: human AXL cytoplasmic domain (Thermo Fisher A31515); purchased Thermo Fisher A31515
# T2 sequence (P30530 473-894 limits assumed): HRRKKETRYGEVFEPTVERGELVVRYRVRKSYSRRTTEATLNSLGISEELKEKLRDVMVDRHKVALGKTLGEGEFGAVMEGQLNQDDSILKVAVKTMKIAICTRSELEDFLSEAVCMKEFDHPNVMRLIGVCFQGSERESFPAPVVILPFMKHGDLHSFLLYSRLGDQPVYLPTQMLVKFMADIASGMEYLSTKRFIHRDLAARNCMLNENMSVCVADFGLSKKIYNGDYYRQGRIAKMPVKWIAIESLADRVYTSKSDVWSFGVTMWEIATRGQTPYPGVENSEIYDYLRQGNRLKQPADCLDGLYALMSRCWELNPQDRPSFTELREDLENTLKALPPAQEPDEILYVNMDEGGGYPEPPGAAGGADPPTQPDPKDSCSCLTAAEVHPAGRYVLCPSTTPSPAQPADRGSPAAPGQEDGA
# How it was run: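 Recombinant cytoplasmic domain (5 nM) in kinase buffer with 5 mM MgCl2, 1 mM MnCl2, 1 mM DTT, 50 nM SEB plus test compounds; reaction 30 min at room temperature. EDTA-containing detection with TK antibody-cryptate/streptavidin-XL665 for 60 min; HTRF 665/620 ratio read. IC50 from 4-parameter logistic fit with variable slope.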
# [3] = target: T3, human MERTK cytoplasmic domain (Homo sapiens, UniProt Q12866); assay: biochemical; details: 30 uM ATP; read-out: Assay 1a Mer IC50 30 uM ATP
# T3 construct: human MERTK cytoplasmic domain (Carna Biosciences 08-108); purchased Carna Biosciences 08-108
# Experimental: Assay 1a—MERTK HTRF KinEASE-TK Assay
# The enzymatic reaction was carried out for 30 min at room temperature. 10 μL TK Antibody-Cryptate/Streptavidin-XL665 (Cisbio 610SAXLG) was then added for 60 min, including EDTA containing detection buffer (Cisbio 62SDBRDF) to stop the reaction.
# [4] = target: T4, recombinant human AXL expressed in live cells (HEK, AXL-Nanoluc fusion vector) (Homo sapiens, UniProt P30530); assay: Assay 3 AXL cellular target engagement (NanoBRET TE) assay; assay type: cell-based
# T4 construct: host or cells: HEK
# T4 sequence (P30530 26-894): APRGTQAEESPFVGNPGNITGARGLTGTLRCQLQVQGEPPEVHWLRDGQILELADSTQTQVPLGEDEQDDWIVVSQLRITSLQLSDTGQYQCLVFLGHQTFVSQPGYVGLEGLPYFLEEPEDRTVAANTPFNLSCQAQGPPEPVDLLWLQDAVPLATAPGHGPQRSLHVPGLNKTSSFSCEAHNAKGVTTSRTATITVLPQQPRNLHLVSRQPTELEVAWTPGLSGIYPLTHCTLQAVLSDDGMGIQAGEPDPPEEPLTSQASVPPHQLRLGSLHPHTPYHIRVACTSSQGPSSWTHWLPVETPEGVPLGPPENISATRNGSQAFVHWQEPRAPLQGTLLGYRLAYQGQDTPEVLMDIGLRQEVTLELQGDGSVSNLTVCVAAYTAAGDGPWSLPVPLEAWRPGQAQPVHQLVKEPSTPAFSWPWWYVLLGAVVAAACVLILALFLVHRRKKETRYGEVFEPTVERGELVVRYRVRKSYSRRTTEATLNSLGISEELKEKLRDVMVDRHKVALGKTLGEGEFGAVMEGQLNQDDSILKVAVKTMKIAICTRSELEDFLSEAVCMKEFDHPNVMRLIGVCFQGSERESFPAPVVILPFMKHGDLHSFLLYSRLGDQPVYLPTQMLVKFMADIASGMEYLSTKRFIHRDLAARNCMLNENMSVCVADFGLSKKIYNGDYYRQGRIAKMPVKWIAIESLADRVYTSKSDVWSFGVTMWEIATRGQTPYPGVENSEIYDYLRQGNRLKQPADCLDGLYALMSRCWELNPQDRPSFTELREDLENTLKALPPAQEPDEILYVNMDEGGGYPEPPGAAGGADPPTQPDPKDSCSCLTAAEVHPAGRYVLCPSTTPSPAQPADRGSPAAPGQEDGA
# Experimental: Assay 3—AXL Cellular Target Engagement (TE) Assay
# Compound affinities for recombinant human AXL expressed in live cells were assessed via the Promega NanoBRET TE assay technology. Human Embryonic Kidney (HEK) cells were transiently transfected with the AXL-Nanoluc fusion vector (Promega Cat NV1071) using Fugene HD reagent (Promega E2311). […] Incubations were conducted for 2 h at 37° C., after which 20 μl NanoGlo substrate/inhibitor mix (Promega N2161) was added to each well for 2-3 min. The plate was then read on a BMG Pherastar FSX using a NanoBRET filter to record donor emission at 450 nm and acceptor fluorophore emission at 610 nm. From this the BRET ratio (acceptor 610 nm/donor 450 nm) for each data point was calculated.
# [5] = HEK cells, tracer K5, 2 h at 37° C., read-out: Assay 3 Cell TE Axl IC50
SMILES,IC50 [1],IC50 [2],IC50 [3],IC50 [4],"IC50 [4, 5]"
"O=C(Nc1ccc(Oc2ccnc3cnc(N4CCNCC4)cc23)c(F)c1)c1cccn(-c2ccccc2)c1=O [Example 31, N-[3-fluoro-4-[(6-piperazin-1-yl-1,7-naphthyridin-4-yl)oxy]phenyl]-2-oxo-1-phenyl-pyridine-3-carboxamide]",26.1 nM,12 nM,6 nM,34.9 nM,–
"O=C(Nc1ccc(Oc2ccnc3cnc(N4CCNCC4)cc23)cn1)c1cccn(-c2ccccc2)c1=O [Example 32, 2-oxo-1-phenyl-N-[5-[(6-piperazin-1-yl-1,7-naphthyridin-4-yl)oxy]-2-pyridyl]pyridine-3-carboxamide]",80.8 nM,310 nM,17 nM,–,127 nM
"O=C(Nc1ccc(Oc2ccnc3cnc(N4CCNCC4)cc23)cc1)c1cccn(-c2ccccc2)c1=O [Example 12, 2-Oxo-1-phenyl-N-[4-[(6-piperazin-1-yl-1,7-naphthyridin-4-yl)oxy]phenyl]pyridine-3-carboxamide]",80.4 nM,54 nM,11 nM,–,114 nM
"O=C(Nc1ccc(Nc2ccnc3cnc(N4CCNCC4)cc23)cc1)c1cccn(-c2ccccc2)c1=O [Example 1, 2-oxo-1-phenyl-N-[4-[(6-piperazin-1-yl-1,7-naphthyridin-4-yl)amino]phenyl]pyridine-3-carboxamide]",175 nM,–,68 nM,145 nM,–
"O=C(N[C@H]1CC[C@H](O)CC1)c1cc2c(Nc3ccc(NC(=O)c4cccn(-c5ccccc5)c4=O)cc3)ccnc2cn1 [Example 5, N-(4-hydroxycyclohexyl)-4-[4-[(2-oxo-1-phenyl-pyridine-3-carbonyl)amino]anilino]-1,7-naphthyridine-6-carboxamide]",96.1 nM,–,60 nM,97.5 nM,–
"O=C(NOCCO)c1cc2c(Nc3ccc(NC(=O)c4cccn(-c5ccccc5)c4=O)cc3)ccnc2cn1 [Example 5.1, N-(2-hydroxyethoxy)-4-[4-[(2-oxo-1-phenyl-pyridine-3-carbonyl)amino]anilino]-1,7-naphthyridine-6-carboxamide]",135 nM,–,70 nM,335 nM,–
"CN1CCC(NC(=O)c2cc3c(Oc4ccc(NC(=O)c5cccn(-c6ccccc6)c5=O)nc4)ccnc3cn2)CC1 [Example 28.2, N-(1-methyl-4-piperidyl)-4-[[6-[(2-oxo-1-phenyl-pyridine-3-carbonyl)amino]-3-pyridyl]oxy]-1,7-naphthyridine-6-carboxamide]",95.6 nM,60 nM,31 nM,83.3 nM,–
"CN1CCC(NC(=O)c2cc3c(Oc4ccc(NC(=O)c5cccn(-c6ccccc6)c5=O)cc4)ccnc3cn2)CC1 [Example 6, N-(1-methyl-4-piperidyl)-4-[4-[(2-oxo-1-phenyl-pyridine-3-carbonyl)amino]phenoxy]-1,7-naphthyridine-6-carboxamide]",110 nM,–,52 nM,110 nM,–
"O=C(Nc1ccc(Nc2ccnc3cnc(N4CCCNCC4)cc23)cc1)c1cccn(-c2ccccc2)c1=O [Example 2.2, N-[4-[[6-(1,4-diazepan-1-yl)-1,7-naphthyridin-4-yl]amino]phenyl]-2-oxo-1-phenyl-pyridine-3-carboxamide]",23.7 nM,–,54 nM,189 nM,–
"O=C(Nc1ccc(Nc2ccnc3cnc(N4CCOCC4)cc23)cc1)c1cccn(-c2ccccc2)c1=O [Example 2.1, N-[4-[(6-morpholino-1,7-naphthyridin-4-yl)amino]phenyl]-2-oxo-1-phenyl-pyridine-3-carboxamide]",163 nM,–,196 nM,1410 nM,–
"CC(C)n1cc(C(=O)Nc2ccc(Nc3ccnc4cnc(N5CCNCC5)cc34)cc2)c(=O)n(-c2ccccc2)c1=O [Example 1.3, 1-isopropyl-2,4-dioxo-3-phenyl-N-[4-[(6-piperazin-1-yl-1,7-naphthyridin-4-yl)amino]phenyl]pyrimidine-5-carboxamide]",260 nM,–,182 nM,24.8 nM,–
"CC(C)n1cc(C(=O)Nc2ccc(Nc3ccnc4cnc(N5CCNCC5)cc34)cc2)c(=O)n(-c2ccc(F)cc2)c1=O [Example 1.1, 3-(4-fluorophenyl)-1-isopropyl-2,4-dioxo-N-[4-[(6-piperazin-1-yl-1,7-naphthyridin-4-yl)amino]phenyl]pyrimidine-5-carboxamide]",1750 nM,–,75 nM,2.9 nM,–
